Laboratory results as given in US20220257793A1, “COMPOSITIONS AND USE OF ENGINEERED MYOGENIC CELLS” (Institute of Zoology, Chinese Academy of Sciences, priority 2019, published 2022).

Assays:
[1] = test system: diabetic nude mice; assay: Transplantation of iMusc-Insm cells into streptozotocin diabetic nude mice; type: in vivo, mouse; conditions: after streptozotocin treatment, before transplantation
Protocol: To determine whether differentiated iMusc-Insm cells were able to produce bioactive insulin and treat diabetes mellitus in vivo, 5×10^6 iMusc-Insm and iMusc-neo myoblast cells were transplanted by direct skeletal muscle injection into 6-8 week old male athymic nude mice (B6.Cg-Foxn1^nn/J; Jackson Labs) that have received daily intraperitoneal injections of 40 mg/kg streptozotocin (Tocris Bioscience), dissolved in 0.1M citrate buffer (pH 4.5), for 5 consecutive days, to model diabetes mellitus. Glycemia and insulinemia were measured in fed mice every 3-7 days, for 3 weeks after injection of the cells. Blood glucose was measured using a glucometer (Roche), while plasma insulin was measured by ELISA (Mercodia).

[2] = test system: LTS progenitors; assay: Cell counts after drug treatment, LTS; type: cell-based, human
Protocol: (§1) HSKM, TS and LTS cells were seeded in gelatin-coated six-well plates at a density of 4×10^4 cells/well and maintained with culture medium. One day after seeding, culture medium was replaced with culture medium containing either paraquat (Sigma-Aldrich; 2 μM), hydrogen peroxide (ICM Pharma; 100 μM), DTT (Thermo Fisher; 250 μM), 2-deoxyglucose (Sigma-Aldrich; 2.5 mM), KC7F2 (Sigma-Aldrich; 10 μM) or DMSO/H2O controls. For ROS modulators, cells were allowed to grow for 72 hours post-treatment, while for 2-DG, cells were allowed to grow for eight days post-treatment.

[3] = test system: HSKM progenitors; assay: Cell counts after drug treatment, HSKM; type: cell-based, human
Protocol: as §1

[4] = test system: LTS progenitors; assay: qRT-PCR after ROS-modulating drugs in LTS progenitors; type: cell-based, human
Protocol: as §1, with “RNA was extracted by TRIzol (Thermo Fisher) and reverse transcribed with Superscript III (Thermo Fisher) according to manufacturer's instructions. The resulting cDNA was diluted 5× before performing qPCR with KAPA SYBR FAST on ABI Prism 7900HT (Applied Biosystems) according to manufacturers' instructions. HSKM,” for “HSKM,”

[5] = test system: TS progenitors; assay: Cell counts after drug treatment, TS; type: cell-based, human
Protocol: as §1

[6] = test system: mitochondrial ROS in HSKM, TS and LTS cells; assay: Flow cytometry oxidation state assay with mito-Grx1-roGFP2; type: cell-based, human; conditions: all progenitor types (HSKM, TS, LTS); H2O2 100 μM, DTT 250 μM
Protocol: HSKM, TS and LTS cells were transduced with the roGFP2 retrovirus for 48 hours. Cells were allowed to expand to 15-cm tissue culture plates and then harvested for fluorescence-activated cell sorting for roGFP2+ cells using the FITC channel with a BD FACS Aria II cell sorter. HSKM, TS and LTS cells were seeded in gelatin-coated six-well plates at a density of 4×10^4 cells/well and maintained with culture medium. […] Cells were allowed to grow for 48 hours and then harvested for flow cytometry using a BD LSR Fortessa x-20 analyzer. HSKM, TS and LTS cells were used as non-fluorescent gating controls for each of their respective roGFP2+ counterparts. For each cell line, FSC, SSC, 405 nm/AmCyan and 488 nm/FITC channels were captured. FCS files were exported from FACS Diva and imported into FlowJo, where raw-value CSV files were exported. Raw values of 405 nm/488 nm ratio was calculated and then averaged for each cell line and condition.

[7] = test system: LTS progenitors; assay: let-7 microRNA mimic transfection; type: cell-based, human
Protocol: HSKM, TS and LTS cells were seeded in gelatin-coated six-well plates at a density of 4×10^4 cells/well and maintained with culture medium. PEI (14.5 ng/μL), mature Mirvana hsa-let-7a-5p (#4464066; Assay ID: MC10050; Thermo Fisher) and/or hsa-let-7b-5p (#4464066; Assay ID: MC11050; Thermo Fisher) mimic (0.25 μM) or Cy5-conjugated scramble RNAi control, was mixed with serum-free DMEM to a total volume of 200 μL. This mixture was transfected onto each well.

Compound | progenitor proliferation (cell counts) [2] | progenitor proliferation (cell counts) [3] | progenitor proliferation (cell counts) [5] | other results
CN(N=O)C(=O)N[C@H]1C(O)O[C@H](CO)[C@@H](O)[C@@H]1O (mixture of isomers) [streptozotocin] |  |  |  | fed glucose levels [1]: ~346 mg/dL; fed insulin levels [1]: ~63 μIU/ml
O[C@H](CS)[C@H](O)CS (racemic) [DTT, dithiothreitol] | significant suppression of LTS progenitor proliferation in a dose-dependent fashion | no significant effects | no significant effects | HIF1A targets and glycolysis genes mRNA [4]: could suppress; OxPhos mRNA levels [4]: failed to perturb; effect on mtROS [6]: most reliably reduced mtROS
O=CC[C@@H](O)[C@H](O)[C@H](O)CO [2-deoxyglucose] | mild but significant decreases | mild but significant decreases | mild but significant decreases | 
OO [H2O2, hydrogen peroxide] | significant suppression of LTS progenitor proliferation in a dose-dependent fashion | no significant effects | no significant effects | HIF1A targets and glycolysis genes mRNA [4]: could suppress; OxPhos mRNA levels [4]: failed to perturb; effect on mtROS [6]: most reliably increased mtROS
O=S(=O)(NCCSSCCNS(=O)(=O)c1cc(Cl)ccc1Cl)c1cc(Cl)ccc1Cl [KC7F2] | significantly suppressed LTS progenitor proliferation | no significant effects | no significant effects | 
hsa-let-7a-5p |  |  |  | effect on proliferation rate (cell counts) [7]: neither let-7a, nor let-7b, nor both, had any effect
hsa-let-7b-5p |  |  |  | effect on proliferation rate (cell counts) [7]: neither let-7a, nor let-7b, nor both, had any effect
